Tested on: gonarthrosis induced by partial excision of medial meniscus/abscission of bilateral collateral ligaments
Experiment: Regenerative healing effects on gonarthrosis induced by partial excision of medial meniscus/abscission of bilateral collateral ligaments
Format: in vivo, rabbit
Conditions: 1 μg in microsphere of Example 7-(1), intra-articular two and six weeks after operation; ten weeks after operation; control 18.86 ± 2.03
Protocol: Japanese White rabbits (male; 10-week-old; 7 rabbits/group) were housed for 16 days at room temperature (23±2° C.) and 55±15% humidity. During the housing period, the rabbits were free to access commercially available food (Oriental Bio Service; LRC4).
Under ether anesthesia, the right knee joint of each rabbit was excised and ½ portion of medial meniscus was isolated with double-edged small straight scissors. The bilateral collateral ligaments were also cut. After the operation, muscle and epidermal tissues were sutured and sterilized. Two weeks from the operation, under ether anesthesia, each rabbit of the test group (7 rabbits/group) was administered intra-articularly the drug-containing microsphere prepared in Example 7-(1), which contains 1 μg of Compound (2). The rabbit of the control group (7 rabbits/group) received the same amount of drug-free microsphere prepared in Control Example 2. […]
After wiping off the excess India Ink, the overhead surface image of the formalin-fixed tibial proximal end was imported into an analyzer, Image Analyzer (IMAGING RESEARCH, MICD imaging analyzer), with a stereomicroscope (OLYMPUS OPTICAL Co., Ltd. model SZX12-2111). […] The gross medial area was also measured and the percentage (%) (the degenerated area rate) of the degenerated medial area in the gross medial area was calculated.

CCOc1cc2cc(CO)c(CO)c(-c3ccnc(-n4nc(-c5cccnc5)c5ccccc5c4=O)c3)c2cc1OCC [Compound (2)]
Degenerated Area Rate (%): 10.16 ± 1.35%

— patent US8399466B2, “Composition for regenerative treatment of cartilage disease” (Mitsubishi Tanabe Pharma Corporation, priority 2001, dated 2013)
